Reference: ChEMBL document CHEMBL1153098, “Discovery of 2-arylthieno[3,2-d]pyrimidines containing 8-oxa-3-azabi-cyclo[3.2.1]octane in the 4-position as potent inhibitors of mTOR with selectivity over PI3K” (Bioorg Med Chem Lett, 2010)

Experiments:
LNCaP = experiment: Cytotoxicity against human LNCAP cells; format: functional, cell-based
[1] = Selectivity index, ratio of IC50 for PI3Kalpha to IC50 for mTOR
[2] = molecular target: Serine/threonine-protein kinase mTOR (Homo sapiens, UniProt P42345); experiment: Inhibition of mTOR
[3] = molecular target: Phosphatidylinositol 4,5-bisphosphate 3-kinase catalytic subunit alpha isoform (Homo sapiens, UniProt P42336); experiment: Inhibition of PI3Kalpha
Phosphatidylinositol 4,5-bisphosphate 3-kinase catalytic subunit alpha isoform, sequence (P42336 whole entry, canonical isoform): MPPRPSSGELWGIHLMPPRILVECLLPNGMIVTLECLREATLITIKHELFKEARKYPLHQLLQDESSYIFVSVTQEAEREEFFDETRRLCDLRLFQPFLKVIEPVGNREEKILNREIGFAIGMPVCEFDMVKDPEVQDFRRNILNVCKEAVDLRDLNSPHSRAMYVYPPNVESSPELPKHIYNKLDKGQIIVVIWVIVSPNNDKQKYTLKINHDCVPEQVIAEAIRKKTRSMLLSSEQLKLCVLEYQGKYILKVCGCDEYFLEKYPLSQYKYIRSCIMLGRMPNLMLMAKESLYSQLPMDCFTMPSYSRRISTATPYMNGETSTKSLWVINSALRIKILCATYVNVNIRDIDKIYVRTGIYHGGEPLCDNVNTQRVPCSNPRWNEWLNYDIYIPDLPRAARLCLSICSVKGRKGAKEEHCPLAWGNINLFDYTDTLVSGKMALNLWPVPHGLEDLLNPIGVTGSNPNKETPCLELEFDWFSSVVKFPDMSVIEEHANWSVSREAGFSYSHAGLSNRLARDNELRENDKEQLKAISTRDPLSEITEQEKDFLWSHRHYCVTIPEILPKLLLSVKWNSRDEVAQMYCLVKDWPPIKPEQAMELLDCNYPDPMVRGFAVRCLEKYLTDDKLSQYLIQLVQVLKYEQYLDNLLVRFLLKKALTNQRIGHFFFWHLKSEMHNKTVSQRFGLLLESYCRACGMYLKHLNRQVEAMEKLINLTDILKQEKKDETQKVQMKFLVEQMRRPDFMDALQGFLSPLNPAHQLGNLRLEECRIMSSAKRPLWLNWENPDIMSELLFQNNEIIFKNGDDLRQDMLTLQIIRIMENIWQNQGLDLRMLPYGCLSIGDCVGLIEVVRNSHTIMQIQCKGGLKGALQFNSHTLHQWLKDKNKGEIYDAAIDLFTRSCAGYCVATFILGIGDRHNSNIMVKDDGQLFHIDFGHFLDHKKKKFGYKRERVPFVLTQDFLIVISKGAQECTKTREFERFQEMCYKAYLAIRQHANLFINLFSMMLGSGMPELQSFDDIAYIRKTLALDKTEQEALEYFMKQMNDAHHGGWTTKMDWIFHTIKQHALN

Ratio IC50 [1]	IC50 [2] [nM]	IC50 [3] [nM]	Structure (SMILES)	IC50 (LNCaP) [nM]
2010	0.68		O=C(Nc1ccc(-c2nc(N3CC4CCC(C3)O4)c3sccc3n2)cc1)NC1CC1	40
392			c1cc2cc(-c3nc(N4CC5CCC(C4)O5)c4sccc4n3)ccc2[nH]1	1350
0.9	49	41	Oc1cccc(-c2nc(N3CCOCC3)c3sccc3n2)c1	1300
4.4	57		Nc1ncc(-c2nc(N3CC4CCC(C3)O4)c3sccc3n2)cn1	1200
176	1		CS(=O)(=O)N1CCN(Cc2cc3nc(-c4ccc(NC(=O)NC5CC5)cc4)nc(N4CC5CCC(C4)O5)c3s2)CC1	32
182	0.44		O=C(Nc1ccncc1)Nc1ccc(-c2nc(N3CC4CCC(C3)O4)c3sccc3n2)cc1	10
51	35		Nc1ccc(-c2nc(N3CC4CCC(C3)O4)c3sccc3n2)cn1	1250
31			CN1CCN(Cc2cc3nc(-c4ccc(NC(=O)Nc5cccnc5)cc4)nc(N4CC5CCC(C4)O5)c3s2)CC1	148
410	0.29		O=C(Nc1ccc(-c2nc(N3CC4CCC(C3)O4)c3sccc3n2)cc1)Nc1cccnc1	27
	58		Oc1cccc(-c2nc(N3CC4CCC(C3)O4)c3sccc3n2)c1	
33			CNC(=O)Nc1ccc(-c2nc(N3CC4CCC(C3)O4)c3sc(CN4CCN(S(C)(=O)=O)CC4)cc3n2)cc1	120
		> 10000	Nc1ccc(-c2nc(N3CC4CCC(C3)O4)c3sccc3n2)cc1	
	1.25		O=C(Nc1ccccc1)Nc1ccc(-c2nc(N3CC4CCC(C3)O4)c3sccc3n2)cc1	
165	26.5		CC(=O)Nc1ccc(-c2nc(N3CC4CCC(C3)O4)c3sccc3n2)cc1	1700
23			CN1CCN(Cc2cc3nc(-c4ccc(NC(=O)Nc5ccncc5)cc4)nc(N4CC5CCC(C4)O5)c3s2)CC1	200
	0.7		CCNC(=O)Nc1ccc(-c2nc(N3CC4CCC(C3)O4)c3sccc3n2)cc1	
	0.6		CS(=O)(=O)N1CCN(Cc2cc3nc(-c4ccc(NC(=O)Nc5cccnc5)cc4)nc(N4CC5CCC(C4)O5)c3s2)CC1	
0.14	61	8.5	Nc1ncc(-c2nc(N3CCOCC3)c3sccc3n2)cn1	680
56	16		CN1CCN(Cc2cc3nc(-c4ccc(NC(=O)NC5CC5)cc4)nc(N4CC5CCC(C4)O5)c3s2)CC1	400
549	11		COC(=O)Nc1ccc(-c2nc(N3CC4CCC(C3)O4)c3sccc3n2)cc1	1850
1110	0.7		O=C(NCCF)Nc1ccc(-c2nc(N3CC4CCC(C3)O4)c3sccc3n2)cc1	87
492	0.9		CNC(=O)Nc1ccc(-c2nc(N3CC4CCC(C3)O4)c3sccc3n2)cc1	85
	0.34		O=C(NCCO)Nc1ccc(-c2nc(N3CC4CCC(C3)O4)c3sccc3n2)cc1	
19		8.3	CS(=O)(=O)N1CCN(Cc2cc3nc(-c4ccc(NC(=O)Nc5ccncc5)cc4)nc(N4CC5CCC(C4)O5)c3s2)CC1	120
	20		CNC(=O)Nc1ccc(-c2nc(N3CC4CCC(C3)O4)c3sc(CN4CCN(C)CC4)cc3n2)cc1	
	32		Oc1ccc(-c2nc(N3CC4CCC(C3)O4)c3sccc3n2)cc1	
